This note sets out measurements from patent US7816521B2, “1,2,4-benzotriazine-1,4-dioxides” (Auckland Uniservices Limited, priority 2004, dated 2010).

Like-named read-outs stand apart in the source and are kept apart here.

One series concerns HT29 cells. Kind of series: First order rate constant for anoxic metabolism in HT29 cells (kmet). The format is in vitro ADME, human. To be noted: rate constant of bioreductive metabolism, Table 1. As to the method: The apparent first order rate constants for anoxic metabolism in HT29 cells (kmet) of compounds representative of the invention were either: • 1. Estimated at the C10 experimentally by incubating stirred single cell suspensions (typically 10 ml at 2×10^6/ml of HT29 cells derived by trypsinisation of multicellular spheroids) in αMEM without serum in 20 ml bottles under flowing 5% CO2/N2 for 90 min, then introducing the compound using deoxygenated DMSO stock solutions to give a range of final drug concentrations. Samples (0.5 ml) were removed at intervals (typically 5 min, 30 min, 1,2,3 hr), washed by centrifugation, and plated to determine the number of clonogenic survivors as described by Hicks et al Cancer Res. 2003 63, 5970. The concentration of compound giving 1 log of kill at 1 hr (C10) was estimated by interpolation. Additional samples taken at the same times were centrifuged to remove cells, and supernatant stored at −80° C. for subsequent HPLC or LCMS analysis. The concentration of compound in the extracellular medium was plotted against time and the concentration closest to the C10 was used to estimate the first order rate constant. This was scaled to MCL cell density as described in Hicks et al, Cancer Res. 2003, 63, 5970 to obtain kmet. Cell viability was determined with a hemocytometer at the end of drug exposure by staining with 0.4% trypan blue to ensure metabolic viability was >75%. TPZ (30 μM) was included in each experiment as a reference compound. O2, in solution was measured using an OxyLite O2 luminescent fiber optic probe (Oxford Optronix Ltd, UK) to ensure severe hypoxia (<0.1 μM).

Series [1] is described as follows: Plasma pharmacokinetics, AUC of free drug in CD-1 nude mice. As to conditions: for AUC: CD-1 nude, mouse, ip. The format is in vivo, mouse. As to the method:
The area under the concentration time curve for free drug (AUCf) in mouse plasma at the maximum tolerated dose (MTD) was determined either experimentally or by calculation.
The compound was formulated in a suitable vehicle (e.g. 0.9% saline, 5% DMSO in 0.9% saline) and administered intraperitoneally (i.p.) as single dose to CD-1 nude mice in a dose-escalating format using 1.33-fold dose increments.
The compound was administered to CD-1 nude mice in a suitable formulation as a single dose (i.p.) at the MTD. Blood samples were collected by retro-orbital sinus bleed or cardiac puncture after which the mouse was culled, or by serial bleeding from the tail vein. Typical time points were 15, 30, 60, and 120 min after administration. Blood was collected in a heparinised container and centrifuged to collect the plasma. The plasma concentration of the compound was determined by HPLC or LCMS using suitable sample preparation and analytical methods. Calibration was done with internal or external standards. The area under the concentration-time curve (AUC) for total (free plus bound) drug was calculated using the linear/log trapezoidal rule and extrapolation to infinity OR standard non-compartmental (PK) modelling.
Plasma protein binding was measured by the determination of the free fraction (FF) by equilibrium dialysis at 37° C. in 50% (v/v) mouse plasma in phosphate-buffered saline (pH 7.4), using a single drug concentration at or near the observed or extrapolated maximum concentration in plasma (Cmax). Compound concentrations after dialysis were determined by HPLC or LCMS.
AUCf for the compound administered as a single dose (i.p.) to CD-1 nude mice at the MTD can be estimated using the following regression equation: Log10(AUCf)=a+b×log Pneutral+c×log10(IC50)+d×log10(HCR)+e×log10(DMCL)+f×log10(kmet)+g×(log Pneutral)^2 where the coefficients are described in the following table: […]

Setting [2] is: plasma, AUC of free drug, single i.p. dose at maximum tolerated dose, mice, Table 1, read-out: AUCf.
The mark [3] stands for this setting: plasma, mouse plasma, free drug, at the MTD or 75% of the MTD, Table 2, read-out: AUC.
Where [4] appears, read: AUC of free drug, single i.p. dose at maximum tolerated dose, mice, Table 1.

Compound `CN(CCCNC(=O)c1cccc2cc3ccccc3nc12)CCCNc1n[n+]([O-])c2ccccc2[n+]1[O-]` [L] had a kmet in the series with HT29 cells of 9.18 min⁻¹. Also, the AUC in series [1] (setting [2]) turned out to be 3.6 µM·h; in series [1] (setting [3]), 3.3 µM·h.

With `Cc1ccc2c(c1)[n+]([O-])c(NCCCN(C)CCCNC(=O)c1cccc3cc4ccccc4nc13)n[n+]2[O-]` [N], the kmet in the series on HT29 cells was 4.74 min⁻¹. Also, the AUC in series [1] (setting [2]) was found to be 1.3 µM·h; in series [1] (setting [3]), 1.6 µM·h.

The compound `Cc1ccc2c(c1)[n+]([O-])c(NCCN(C)C)n[n+]2[O-]` [H, N^1,N^1-Dimethyl-N^2-(6-methyl-1,4-dioxido-1,2,4-benzotriazin-3-yl)-1,2-ethanediamine] came in with a kmet with HT29 cells of 1.52 min⁻¹. In series [1] (setting [4]), the AUCf is 69.0 µM·h. Also, the AUC in series [1] (setting [3]) is 67.8 µM·h.

In the case of `Nc1n[n+]([O-])c2ccccc2[n+]1[O-]` [A, tirapazamine, reference compound], the kmet in the series on HT29 cells worked out at 0.60 min⁻¹. The AUC in series [1] (in vivo, AUC) was determined as 148 µM·h; in series [1] (in vivo, AUCf) it was 148 µM·h.

In the case of `CCCN(CCC)CCNc1n[n+]([O-])c2ccccc2[n+]1[O-]` [G], the kmet with HT29 cells was 4.89 min⁻¹. This compound also displayed an AUCf in series [1] (setting [4]) of 7.2 µM·h. Further, in series [1] (setting [3]), the AUC stood at 7.1 µM·h.

For `Nc1n[n+]([O-])c2cc(Cl)ccc2[n+]1[O-]` [C, 7-Chloro-1,2,4-benzotriazin-3-amine 1,4-Dioxide], the kmet in the series with HT29 cells worked out at 3.92 min⁻¹. For the same compound, the values for the AUC in series [1] (setting [2]) and in series [1] (setting [3]) were 1.9 µM·h and 2.7 µM·h, respectively.

The compound `Cc1ccc2c(c1)[n+]([O-])nc(NCCN(C)C)[n+]2[O-]` [F, 7-Methyl-N-[2-(dimethylamino)ethyl]-1,2,4-benzotriazin-3-amine 1,4-Dioxide] registered a kmet with HT29 cells of 2.54 min⁻¹. For the same compound, the AUC in series [1] (setting [2]) was 3.5 µM·h; in series [1] (setting [3]), 3.9 µM·h.

Consider `COCCc1n[n+]([O-])c2ccccc2[n+]1[O-]` [J], for which the kmet in the series with HT29 cells came to 2.01 min⁻¹. For the same compound, the AUC in series [1] (setting [2]) was determined as 79 µM·h; in series [1] (setting [3]), 83.5 µM·h.

`CN(CCCNC(=O)c1cccc2ccc(-c3ccncc3)nc12)CCCNc1n[n+]([O-])c2ccccc2[n+]1[O-]` [M] showed a kmet with HT29 cells of 9.13 min⁻¹. Moreover, the AUC came out at 0.9 µM·h in series [1] (setting [2]) and 1.2 µM·h in series [1] (setting [3]).

Turning to `Cc1ccc2c(c1)[n+]([O-])c(N)n[n+]2[O-]` [B, 6-Methyl-1,2,4-benzotriazin-3-amine 1,4-Dioxide], the kmet with HT29 cells stood at 0.20 min⁻¹. In series [1] (setting [4]), this compound yielded an AUCf of 188.7 µM·h. Further, in series [1] (setting [3]), the AUC came to 216 µM·h.

Turning to `CCc1n[n+]([O-])c2ccccc2[n+]1[O-]` [I], the kmet in the series with HT29 cells stood at 1.91 min⁻¹. The AUC came out at 141 µM·h in series [1] (setting [2]) and 139 µM·h in series [1] (setting [3]).

`CS(=O)(=O)c1ccc2c(c1)[n+]([O-])nc(N)[n+]2[O-]` [E, 7-(Methylsulfonyl)-1,2,4-benzotriazin-3-amine 1,4-Dioxide]: the kmet in the series with HT29 cells came to 1.00 min⁻¹. Further, the AUC in series [1] (setting [2]) and in series [1] (setting [3]) was 15.6 µM·h throughout.

Turning to `[O-][n+]1nc(NCCCCCCNc2c3ccccc3nc3ccccc23)[n+]([O-])c2ccccc21` [K], in the series on HT29 cells, the kmet amounted to 18.33 min⁻¹. Further, the AUC in series [1] (setting [2]) stood at 0.042 µM·h.

In the series on HT29 cells, `Nc1n[n+]([O-])c2c(Cl)cccc2[n+]1[O-]` [D, 8-Chloro-1,2,4-benzotriazin-3-amine 1,4-Dioxide] gave a kmet of 10.03 min⁻¹. In addition, the AUC worked out at 0.8 µM·h in series [1] (setting [2]) and 0.7 µM·h in series [1] (setting [3]).
